Active and inactive are the calls of the source. The rule behind the calls is not given here.
How the values were obtained:
[1] = Induction of singlet oxygen generation in cell free condition upon 635 nm semiconductor laser light irradiation by singlet oxygen sensor green dye based fluorescence spectrophotometeric analysis; assay type: functional
4T1 [2] = assay: Phototoxicity against mouse 4T1 cells assessed as cell viability at 0.5 uM preincubated for 4 hrs followed by 0.5 J/cm2 light irradiation and measured after 24 hrs by MTT assay relative to control; assay type: functional; conditions: 4T1, light or radiation study, read-out: Activity
4T1 [3] = assay: Phototoxicity against mouse 4T1 cells assessed as cell viability at 0.5 uM preincubated for 4 hrs followed by 2 J/cm2 light irradiation and measured after 24 hrs by MTT assay relative to control; assay type: functional; conditions: 4T1, light or radiation study, read-out: Activity
MCF7 = assay: Phototoxicity against human MCF7 cells assessed as cell viability at 0.5 uM preincubated for 4 hrs followed by 0.5 to 2 J/cm2 light irradiation and measured after 24 hrs by MTT assay; assay type: functional, cell-based
HUVEC = assay: Phototoxicity against HUVEC assessed as cell viability at 0.5 uM preincubated for 4 hrs followed by 0.5 to 2 J/cm2 light irradiation and measured after 24 hrs by MTT assay; assay type: cell-based; conditions: human
[4] = Dark toxicity against human MDA-MB-231 cells assessed as cell viability at 0.5 uM after 24 hrs by MTT assay; assay type: cell-based; conditions: mda-mb-231, 24 h
[5] = Selectivity index, ratio of dark toxicity against human MCF7 at 0.5 uM cells to phototoxicity against human MCF7 cells at 0.5 uM; assay type: cell-based; conditions: read-out: Selectivity Index
[6] = Drug uptake in human MDA-MB-231 cells at 5 uM after 4 hrs by fluorescence microscopic analysis; assay type: ADME, cell-based; conditions: mda-mb-231, 4 h
[7] = Drug uptake in human MDA-MB-231 cells at 5 uM by flow cytometric analysis; assay type: ADME, cell-based; conditions: mda-mb-231, 5 µM, TDE = time-dependent effect
[8] = Drug uptake in lung of BALB/c mouse xenografted with mouse 4T1 cells at 10 mg/kg, iv measured at 12 hrs post injection by IVIS spectrum imaging; assay type: ADME, organism-based; conditions: in vivo
[9] = Drug uptake in mitochondria of human MDA-MB-231 cells at 10 uM after 4 hrs by Mito tracker green-based confocal laser scanning microscopic analysis; assay type: ADME; conditions: mda-mb-231, 4 h
[10] = Drug uptake in lysosome of human MDA-MB-231 cells at 10 uM after 4 hrs by Lyso tracker green-based confocal laser scanning microscopic analysis; assay type: ADME, subcellular; conditions: mda-mb-231, 4 h
[11] = Drug uptake in tumor of BALB/c mouse xenografted with mouse 4T1 cells at 10 mg/kg, iv measured at 12 hrs post injection by IVIS spectrum imaging; assay type: ADME, organism-based, Neoplasm; conditions: in vivo
[12] = Drug uptake in tumor of BALB/c mouse xenografted with mouse 4T1 cells at 10 mg/kg, iv measured up to 3 to 24 hrs post injection by fluorescence assay; assay type: ADME, organism-based, Neoplasm; conditions: in vivo
MDA-MB-231 [13] = assay: Induction of ROS generation in human MDA-MB-231 cells incubated with DCF-DA probe for 30 mins prior to ROS scavenger NAC addition 1 hr before 2 J/cm2 light irradiation and measured after 1 hr post irradiation by flow cytometric analysis; assay type: functional, cell-based
MDA-MB-231 [14] = assay: Induction of apoptosis in human MDA-MB-231 cells assessed as early apoptotic cells after 24 hrs by Annexin-V FITC/propidium iodide staining based flow cytometric analysis (reference value: 1.22%); assay type: cell-based; conditions: mda-mb-231, 24 h
MDA-MB-231 [15] = assay: Induction of apoptosis in human MDA-MB-231 cells assessed as late apoptotic cells after 24 hrs by Annexin-V FITC/propidium iodide staining based flow cytometric analysis (reference value: 1.28%); assay type: cell-based; conditions: mda-mb-231, 24 h
MDA-MB-231 [16] = assay: Induction of apoptosis in human MDA-MB-231 cells assessed as necrotic cells after 24 hrs by Annexin-V FITC/propidium iodide staining based flow cytometric analysis (reference value: 4.24%); assay type: cell-based; conditions: mda-mb-231, 24 h
MDA-MB-231 [17] = assay: Induction of apoptosis in human MDA-MB-231 cells assessed as early apoptotic cells after 24 hrs upon light irradiation by Annexin-V FITC/propidium iodide staining based flow cytometric analysis (reference value: 1.22%); assay type: functional
MDA-MB-231 [18] = assay: Induction of apoptosis in human MDA-MB-231 cells assessed as late apoptotic cells after 24 hrs upon light irradiation by Annexin-V FITC/propidium iodide staining based flow cytometric analysis (reference value: 1.28%); assay type: functional
MDA-MB-231 [19] = assay: Induction of apoptosis in human MDA-MB-231 cells assessed as necrotic cells after 24 hrs upon light irradiation by Annexin-V FITC/propidium iodide staining based flow cytometric analysis (reference value: 4.24%); assay type: functional
MDA-MB-231 [20] = assay: Induction of apoptosis in human MDA-MB-231 cells assessed as viable cells after 24 hrs upon light irradiation by Annexin-V FITC/propidium iodide staining based flow cytometric analysis (reference value: 93.27%); assay type: functional
4T1 [21] = assay: Antitumor activity against mouse 4T1 cells xenografted in BALB/c mouse assessed as inhibition of tumor weight at 1 to 4 mg/kg, iv pretreated for 24 hrs followed by 50 J/cm2 light irradiation and measured at day 22 post last dose; assay type: functional, organism-based
4T1 [22] = assay: Antitumor activity against mouse 4T1 cells xenografted in BALB/c mouse assessed as induction of tissue destruction with large spaces at 4 mg/kg, iv pretreated for 24 hrs followed by 50 J/cm2 light irradiation by hematoxylin and eosin staining based light microscopic analysis; assay type: functional, organism-based
4T1 [23] = assay: Induction of apoptosis in mouse 4T1 cells xenografted in BALB/c mouse at 4 mg/kg, iv pretreated for 24 hrs followed by 50 J/cm2 light irradiation by TUNEL assay; assay type: functional, organism-based
4T1 [24] = assay: Induction of apoptosis in mouse 4T1 cells xenografted in BALB/c mouse at 4 mg/kg, iv after 24 hrs by TUNEL assay; assay type: functional, organism-based
Mus musculus [25] = assay: Toxicity in BALB/c mouse xenografted with mouse 4T1 cells assessed as effect on body weight at 1 mg/kg, iv pre-tretaed for 24 hrs followed by 50 J/cm2 light irradiation and measured at day 22 post dose; assay type: organism-based; conditions: in vivo
Mus musculus [26] = assay: Toxicity in BALB/c mouse xenografted with mouse 4T1 cells assessed as effect on body weight at 2 mg/kg, iv pre-tretaed for 24 hrs followed by 50 J/cm2 light irradiation and measured at day 22 post dose; assay type: organism-based; conditions: in vivo
Mus musculus [27] = assay: Hepatotoxicity in BALB/c mouse xenografted with mouse 4T1 cells assessed as pathological changes in liver at 4 mg/kg, iv pre-tretaed for 24 hrs followed by 50 J/cm2 light irradiation and measured at day 22 post dose by hematoxylin and eosin staining based light microscopic analysis; assay type: toxicity, organism-based; conditions: in vivo
Mus musculus [28] = assay: Nephrotoxicity in BALB/c mouse xenografted with mouse 4T1 cells assessed as pathological changes in kidney at 4 mg/kg, iv measured at day 22 post dose by hematoxylin and eosin staining based light microscopic analysis; assay type: toxicity, organism-based; conditions: in vivo
Mus musculus [29] = assay: Nephrotoxicity in BALB/c mouse xenografted with mouse 4T1 cells assessed as pathological changes in kidney at 1 to 4 mg/kg, iv pre-tretaed for 24 hrs followed by 50 J/cm2 light irradiation and measured at day 22 post dose by hematoxylin and eosin staining based light microscopic analysis; assay type: toxicity, organism-based; conditions: in vivo
Mus musculus [30] = assay: Toxicity in BALB/c mouse xenografted with mouse 4T1 cells assessed as pathological changes in spleen at 4 mg/kg, iv measured at day 22 post dose by hematoxylin and eosin staining based light microscopic analysis; assay type: organism-based; conditions: in vivo
Mus musculus [31] = assay: Toxicity in BALB/c mouse xenografted with mouse 4T1 cells assessed as pathological changes in lung at 1 to 4 mg/kg, iv pre-tretaed for 24 hrs followed by 50 J/cm2 light irradiation and measured at day 22 post dose by hematoxylin and eosin staining based light microscopic analysis; assay type: organism-based; conditions: in vivo

| Compound | Activity [1] | viability at 0.5 µM (4T1 [2]) [%] | viability at 0.5 µM (4T1 [3]) [%] | Activity (MCF7) | Activity (HUVEC) | Activity [4] | selectivity ratio at 0.5 µM [5] | Drug uptake [6] | Drug uptake [7] | Drug uptake [8] | Drug uptake [9] | Drug uptake [10] | Drug uptake [11] | Drug uptake [12] | Activity (MDA-MB-231 [13]) | Activity (MDA-MB-231 [14]) [%] | Activity (MDA-MB-231 [15]) [%] | Activity (MDA-MB-231 [16]) [%] | Activity (MDA-MB-231 [17]) [%] | Activity (MDA-MB-231 [18]) [%] | other results |
| --- | --- | --- | --- | --- | --- | --- | --- | --- | --- | --- | --- | --- | --- | --- | --- | --- | --- | --- | --- | --- | --- |
| C=CC1=C(C)c2cc3[nH]c(cc4nc(cc5[nH]c(cc1n2)c(C)c5CCC(=O)[O-])C(CCC(=O)[O-])=C4C)c(C)c3C(C)OCCCCCC.[Na+].[Na+] (stereo unspecified) | Dose-dependent effect | 98 | 54.6 | Active | Non-Toxic | Non-Toxic | 24.2 | Active | Tde | Not Active | Active | Active | Active | Active | inactive | 4.02 | 2.73 | 0.4 | 7.17 | 40.09 | Activity (MDA-MB-231 [19]): 11.12%; Activity (MDA-MB-231 [20]): 41.63%; inhibition (4T1 [21]): Active; Activity (4T1 [22]): Active; Activity (4T1 [23]): Active; Activity (4T1 [24]): inactive; Activity (Mus musculus [25]): Non-Toxic; Activity (Mus musculus [26]): Non-Toxic; Activity (Mus musculus [27]): Non-Toxic; Activity (Mus musculus [28]): Non-Toxic; Activity (Mus musculus [29]): Non-Toxic; Activity (Mus musculus [30]): Non-Toxic; Activity (Mus musculus [31]): Non-Toxic |
| C=Cc1c(C)c2cc3nc(cc4[nH]c(cc5nc(cc1[nH]2)C(C)=C5C(C)OCCCCCC)c(C)c4CCC(=O)[O-])C(CCC(=O)[O-])=C3C.[Na+].[Na+] (stereo unspecified) | Dose-dependent effect | 86.4 | 47.3 | Active | Non-Toxic | Non-Toxic | 90.8 | Active | Tde | Not Active | Active | Active | Active | Active | inactive | 3.72 | 2.34 | 0.58 | 3.82 | 53.54 | Activity (MDA-MB-231 [19]): 10.12%; Activity (MDA-MB-231 [20]): 32.52%; inhibition (4T1 [21]): Active; Activity (4T1 [22]): Active; Activity (4T1 [23]): Active; Activity (4T1 [24]): inactive; Activity (Mus musculus [25]): Non-Toxic; Activity (Mus musculus [26]): Non-Toxic; Activity (Mus musculus [27]): Non-Toxic; Activity (Mus musculus [28]): Non-Toxic; Activity (Mus musculus [29]): Non-Toxic; Activity (Mus musculus [30]): Non-Toxic; Activity (Mus musculus [31]): Non-Toxic |

Source: ChEMBL document CHEMBL4229478, “Synthesis, Characterization, and Biological Evaluation of a Porphyrin-Based Photosensitizer and Its Isomer for Effective Photodynamic Therapy against Breast Cancer” (J Med Chem, 2018)
